From patent US20110281854A1, “MORPHOLINE COMPOUNDS” (Pfizer Inc, priority 2010, published 2011)

target: T1, MR (Homo sapiens, UniProt P08235); assay: Cell-based reporter assay (Gal4-MR-LBD luciferase, antagonist mode); conditions: not given
T1 construct: expressed in transfected cells; host or cells: Huh7 human liver cells (ATCC), transient transfection with FuGENE 6
T1 sequence (P08235 726-964 limits assumed): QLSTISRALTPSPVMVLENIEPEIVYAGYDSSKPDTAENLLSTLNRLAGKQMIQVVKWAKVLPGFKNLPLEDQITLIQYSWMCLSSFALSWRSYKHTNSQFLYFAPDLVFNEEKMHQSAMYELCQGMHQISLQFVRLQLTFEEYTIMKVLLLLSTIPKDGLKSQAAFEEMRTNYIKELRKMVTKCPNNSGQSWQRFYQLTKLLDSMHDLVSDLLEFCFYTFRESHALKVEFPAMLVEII
Method: To measure the ability of test compound in the present invention to modulate the activity of MR (agonize, antagonize, partially agonize, partially antagonize), bioassays were performed that measured the modulation of reporter gene expression. Cells were transiently transfected with a luciferase reporter gene under the control of a Gal4 response element (Gal4-RE-luc) and a plasmid containing the Gal4 DNA binding domain fused to the MR ligand binding domain (Gal4-MR-LBD). Agonists can bind to and activate the MR-LBD, which activates the expression of the luciferase reporter gene through interaction with the Gal4 response element. […] Antagonists can compete for binding to the NHR-LBD and decrease the agonist-induced transcriptional activity of the reporter gene. Therefore, measurement of luciferase activity allowed quantitative determinations of the reporter transcription in the presence of either agonists or competitive antagonists.
The final concentration of DMSO in the test plate was 0.5%. Following an overnight incubation with compound, 25 μL of Steady-Glow™ lysis buffer with luciferase substrate (Promega Corporation, E2550) was added directly to the cells. After a 30-minute incubation to completely lyse the cells, the microplates were counted in an Envision™ Multilabel Reader (Perkin Elmer) in single photon counting mode.

Point of comparison: `C[C@@H]1CN(c2ccc3c(c2)NC(=O)CS3)[C@H](c2ccccc2)CO1` [Example 4, 6-((2R,5R)-2-methyl-5-phenylmorpholino)-2H-benzo[b][1,4]thiazin-3(4H)-one], IC50 306 nM. Against it:
- C[C@H]1CN(c2ccc3c(n2)NC(=O)CO3)[C@@H](c2ccccc2F)CO1 (racemic) [Example 7, (±)-6-(cis-5-(2-fluorophenyl)-2-methylmorpholino)-2H-pyrido[3,2-b][1,4]oxazin-3(4H)-one] — 4.8-fold lower, 63.6 nM
- CC1CN(c2ccc3c(n2)NC(=O)CO3)CCO1 (racemic) [Example 17, 6-(2-methylmorpholino)-2H-pyrido[3,2-b][1,4]oxazin-3(4H)-one] — 10-fold higher, 3050 nM
- C[C@H]1CN(c2cc3c(cn2)OCC(=O)N3)[C@@H](c2ccccc2F)CO1 (racemic) [Example 32, (±)-7-(cis-5-(2-fluorophenyl)-2-methylmorpholino)-1H-pyrido[3,4-b][1,4]oxazin-2(3H)-one] — 2.8-fold lower, 111 nM
- C[C@H]1CN(c2ncc3c(n2)NC(=O)CO3)[C@@H](c2ccccc2F)CO1 (racemic) [Example 34, (±)-2-(cis-5-(2-fluorophenyl)-2-methylmorpholino)-6H-pyrimido[5,4-b][1,4]oxazin-7(8H)-one] — 2.1-fold lower, 146 nM
- C[C@H]1CN(c2cc3c(cn2)OCC(=O)N3)[C@@H](c2cccc(F)c2)CO1 (racemic) [Example 50, (±)-7-(cis-5-(3-fluorophenyl)-2-methylmorpholino)-1H-pyrido[3,4-b][1,4]oxazin-2(3H)-one] — within 1.5-fold, 272 nM
- C[C@H]1CN(c2ncc3c(n2)NC(=O)CO3)[C@@H](c2cccc(F)c2)CO1 (racemic) [Example 51, (±)-2-(cis-5-(3-fluorophenyl)-2-methylmorpholino)-6H-pyrimido[5,4-b][1,4]oxazin-7(8H)-one] — 1.8-fold higher, 537 nM
- COc1ccccc1[C@H]1CO[C@@H](C)CN1c1cc2c(cn1)OCC(=O)N2 (racemic) [Example 62, (±)-7-(cis-5-(2-methoxyphenyl)-2-methylmorpholino)-1H-pyrido[3,4-b][1,4]oxazin-2(3H)-one] — 26-fold higher, 7910 nM
- C[C@H]1CN(c2ncc3c(n2)NC(=O)CO3)[C@@H](c2ccccc2Cl)CO1 (racemic) [Example 64, (±)-2-(cis-5-(2-chlorophenyl)-2-methylmorpholino)-6H-pyrimido[5,4-b][1,4]oxazin-7(8H)-one] — within 1.5-fold, 449 nM
- C[C@H]1CN(c2cc3c(cn2)OCC(=O)N3)[C@@H](c2ccccc2Cl)CO1 (racemic) [Example 65, (±)-7-(cis-5-(2-chlorophenyl)-2-methylmorpholino)-1H-pyrido[3,4-b][1,4]oxazin-2(3H)-one] — 2.1-fold higher, 631 nM
- C[C@H]1CN(c2ccc3c(n2)NC(=O)CO3)[C@@H](c2ccccc2Cl)CO1 (racemic) [Example 66, (±)-6-(cis-5-(2-chlorophenyl)-2-methylmorpholino)-2H-pyrido[3,2-b][1,4]oxazin-3(4H)-one] — within 1.5-fold, 451 nM
- C[C@@H]1CN(c2ccc3c(n2)NC(=O)CO3)[C@H](c2ccccc2F)CO1 (single isomer, unassigned) [Example 8] — 9.2-fold lower, 33.4 nM
- O=C1COc2ccc(N3CCOC[C@H]3c3ccc(F)cc3)nc2N1 (single isomer, unassigned) [Example 14] — 3.6-fold higher, 1100 nM
- C[C@H]1CN(c2ccc3c(n2)NC(=O)CO3)CCO1 (single isomer, unassigned) [Example 18] — 8.9-fold higher, 2710 nM
- C[C@@H]1CN(c2ccc3c(n2)NC(=O)CO3)CCO1 (single isomer, unassigned) [Example 19] — 18-fold higher, 5610 nM
- Cc1cc(N2CCOC[C@H]2c2ccccc2)cc2c1OCC(=O)N2 (single isomer, unassigned) [Example 22] — 2.9-fold higher, 885 nM
- C[C@@H]1CN(c2ccc3c(n2)NC(=O)CO3)[C@@H]2c3ccccc3C[C@@H]2O1 (single isomer, unassigned) [Example 23] — within 1.5-fold, 284 nM
- C[C@H]1CN(c2ccc3c(n2)NC(=O)CO3)[C@@H]2c3ccccc3C[C@@H]2O1 (single isomer, unassigned) [Example 24] — 5.8-fold higher, 1770 nM
- C[C@@H]1CN(c2cc3c(cn2)OCC(=O)N3)[C@H](c2ccccc2F)CO1 (single isomer, unassigned) [Example 33] — 5.7-fold lower, 53.9 nM
- C[C@@H]1CN(c2ncc3c(n2)NC(=O)CO3)[C@H](c2ccccc2F)CO1 (single isomer, unassigned) [Example 35] — 2.9-fold lower, 104 nM
- C[C@@H]1CN(c2ccc3c(n2)NC(=O)CO3)[C@H](c2ccccc2Cl)CO1 (single isomer, unassigned) [Example 67] — 2.3-fold lower, 135 nM
- C[C@@H]1CN(c2ncc3c(n2)NC(=O)CO3)[C@H](c2ccccc2)CO1 [Example 2, 2-((2R,5R)-2-methyl-5-phenylmorpholino)-6H-pyrimido[5,4-b][1,4]oxazin-7(8H)-one] — within 1.5-fold, 266 nM
- C[C@@H]1CN(c2ccc3ncc(=O)[nH]c3c2)[C@H](c2ccccc2)CO1 [Example 3, 7-((2R,5R)-2-methyl-5-phenylmorpholino)quinoxalin-2(1H)-one] — 1.9-fold lower, 157 nM
- Cc1cc(N2C[C@@H](C)OC[C@H]2c2ccccc2)nc2c1OCC(=O)N2 [Example 5, 8-methyl-6-((2R,5R)-2-methyl-5-phenylmorpholino)-2H-pyrido[3,2-b][1,4]oxazin-3(4H)-one] — 1.8-fold lower, 174 nM
- C[C@@H]1CN(c2ccc3c(n2)NCCO3)[C@H](c2ccccc2)CO1 [Example 6, 6-[(2R,5R)-2-methyl-5-phenylmorpholin-4-yl]-3,4-dihydro-2H-pyrido[3,2-b][1,4]oxazine] — 3.2-fold higher, 977 nM
- CC1(C)CN(c2ccc3c(n2)NC(=O)CO3)[C@H](c2ccccc2)CO1 [Example 13, (R)-6-(2,2-dimethyl-5-phenylmorpholino)-2H-pyrido[3,2-b][1,4]oxazin-3(4H)-one] — within 1.5-fold, 407 nM
- O=C1COc2ccc(N3CCOC[C@H]3c3ccccc3)nc2N1 [Example 16, (R)-6-(3-phenylmorpholino)-2H-pyrido[3,2-b][1,4]oxazin-3(4H)-one] — 6.4-fold higher, 1970 nM
- O=C1COc2ccc(N3CCO[C@H]4Cc5ccccc5[C@H]43)nc2N1 [Example 20, 6-((4aR,9aS)-2,3,9,9a-tetrahydroindeno[2,1-b][1,4]oxazin-4(4aH)-yl)-2H-pyrido[3,2-b][1,4]oxazin-3(4H)-one] — 9.8-fold higher, 3000 nM
- O=C1COc2ccc(N3CCOC[C@H]3c3ccccc3)cc2N1 [Example 21, (R)-6-(3-phenylmorpholino)-2H-benzo[b][1,4]oxazin-3(4H)-one] — 1.9-fold higher, 583 nM
- C[C@@H]1CN(c2ccc3c(n2)NC(=O)CO3)C[C@H](C)O1 [Example 25, 6-(cis-2,6-dimethylmorpholino)-2H-pyrido[3,2-b][1,4]oxazin-3(4H)-one] — 2.6-fold higher, 798 nM
- CCC1CN(c2ccc3c(n2)NC(=O)CO3)CCO1 (stereo not shown) [Example 26, 6-(2-ethylmorpholino)-2H-pyrido[3,2-b][1,4]oxazin-3(4H)-one] — 11-fold higher, 3370 nM
- C[C@@H]1CN(c2cccc(NS(C)(=O)=O)n2)[C@H](c2ccccc2)CO1 [Example 27, N-(6-((2R,5R)-2-methyl-5-phenylmorpholino)pyridin-2-yl)methanesulfonamide] — 4-fold higher, 1230 nM
- C[C@@H]1CN(c2ccc3c(c2)NC(=O)CO3)[C@H](c2ccccc2)CO1 [Example 28, 6-((2R,5R)-2-methyl-5-phenylmorpholino)-2H-benzo[b][1,4]oxazin-3(4H)-one] — 13-fold lower, 24 nM
- C[C@@H]1CN(c2ccc3c(n2)NC(=O)C(F)(F)O3)[C@H](c2ccccc2)CO1 [Example 30, 2,2-difluoro-6-((2R,5R)-2-methyl-5-phenylmorpholino)-2H-pyrido[3,2-b][1,4]oxazin-3(4H)-one] — 31-fold higher, 9560 nM
- O=C1COc2ccc(N3C[C@@H](C4CC4)OC[C@H]3c3ccccc3)nc2N1 [Example 31, 6-((2R,5R)-2-cyclopropyl-5-phenylmorpholino)-2H-pyrido[3,2-b][1,4]oxazin-3(4H)-one] — 3-fold higher, 913 nM
- O=C1COc2ccc(N3CCOCC34CCc3ccccc34)nc2N1 (stereo not shown) [Example 36, 6-(2,3-dihydrospiro[indene-1,3′-morpholin]-4′-yl)-2H-pyrido[3,2-b][1,4]oxazin-3(4H)-one] — 5.7-fold higher, 1740 nM
- C[C@@H]1CN(c2nc3c(cc2F)OCC(=O)N3)[C@H](c2ccccc2)CO1 [Example 37, 7-fluoro-6-((2R,5R)-2-methyl-5-phenylmorpholino)-2H-pyrido[3,2-b][1,4]oxazin-3(4H)-one] — 4.7-fold higher, 1440 nM
- CC1(c2ccccc2)CN(c2ccc3c(c2)NC(=O)CO3)CCO1 (stereo not shown) [Example 38, 6-(2-methyl-2-phenylmorpholino)-2H-benzo[b][1,4]oxazin-3(4H)-one] — 16-fold higher, 4970 nM
- O=C1COc2ccc(N3C[C@@H](CF)OC[C@H]3c3ccccc3)nc2N1 [Example 39, 6-((2S,5R)-2-(fluoromethyl)-5-phenylmorpholino)-2H-pyrido[3,2-b][1,4]oxazin-3(4H)-one] — 3.5-fold lower, 86.7 nM

same assay, conditions: antagonist mode; decrease of EC80 aldosterone signal by 50%; Huh7 cells transfected with Gal4-MR-LBD and Gal4-RE-luc

“6-((2S,5R)-2-(methoxymethyl)-5-phenylmorpholino)-2H-pyrido[3,2-b][1,4]oxazin-3(4H)-one [Example 49]” gave an IC50 of 358 nM.
